Patent publication US11485744B2, “High penetration prodrug compositions of antimicrobials and antimicrobial-related compounds” (priority 2009, dated 2022)
Values after ≈ are worked out from the molar mass of the structure shown. Like-named read-outs stand apart in the source and are kept apart here.

Legend:
[1] = In vitro penetration across isolated human skin in modified Franz cells
Experimental: Penetration rates of HPPs and their parent drugs through human skin were measured in vitro by modified Franz cells. A Franz cell had two chambers, the top sample chamber and the bottom receiving chamber. The human skin tissue (360-400 μm thick) that separated the top and the receiving chambers was isolated from the anterior or posterior thigh areas.
A test compound (2 mL, 10% in 0.2 M phosphate buffer, pH 7.4) was added to the sample chamber of a Franz cell. The receiving chamber contained 10 ml of 0.2 M phosphate buffer which was stirred at 600 rpm. The amount of the tested compound penetrating the skin was determined by high-performance liquid chromatography (HPLC) method.

[2] = Conversion of HPPs to parent drugs in human plasma (half life); assay type: in vitro ADME; settings: for half-life at 9.1 mg/mL: pH 7.4
Experimental: HPPs of antimicrobials or antimicrobial-related compounds converted to the parent antimicrobials or antimicrobial-related compounds quickly in good yield in human plasma.
A HPP of antimicrobial or antimicrobial-related compound (10 mg) was dissolved in 0.1 ml of 0.2M pH 7.4 phosphate buffer. 1 ml of human plasma, preheated to 37° C., was added into the mixture. The mixture was kept in a water bath at 37° C., and at every 2 min intervals 0.2 ml of samples were withdrawn and added to 0.4 ml of methanol to precipitate the plasma protein.

[3] = mouse, in vivo
Experimental: In vivo rates of penetration of HPPs of beta-lactam antibiotics through skin and blood-brain barrier of intact hairless mice were studied. […] After 2 hours, the mice were killed. 5 ml of methanol was added to 1 g of homogenized blood, liver, kidney, muscle, or brain. The samples were centrifuged for 5 min and analyzed by HPLC (Table 2).

[4] = system: methicillin-resistant Staphylococcus aureus (MRSA); experiment: MIC against MRSA; assay type: cell-based; settings: Table 6a

3-[[(aminocarbonyl)oxy]methyl]-7-[[2-furanyl(methoxyimino)acetyl]amino]-8-oxo-5-thia-1-azabicyclo[4.2.0]oct-2-ene-2-carboxylic acid 2-diethylaminoethyl ester hydrochloride
In vitro Penetration Rate (apparent flux), HPPs ([1]; Table 1a, isolated human skin, Franz cells, 10% in 0.2 M phosphate buffer pH 7.4, n=5): 0.67 ± 0.04 mg/cm^2/h | Half life of HPPs in plasma ([2]; human plasma, 37° C.): 8 ± 1 min

CCN(CC)CCOC(=O)C1=C(COC(C)=O)CSC2C(NC(=O)C(=NOC)c3csc(NC(C)=O)n3)C(=O)N12.Cl (centres unmarked) [3-[(acetyloxy)methyl]-7-[[(2-acetylamino-4-thiazolyl)(methoxyimino)acetyl]amino]-8-oxo-5-thia-1-azabicyclo[4.2.0]oct-2-ene-2-carboxylic acid 2-diethylaminoethyl ester hydrochloride]
In vitro Penetration Rate (apparent flux), HPPs ([1]; human, 10 %, pH 7.4): 0.73 ± 0.06 mg/cm^2/h | half-life at 9.1 mg/mL ([2]; human, plasma): 10 min

CCN(CC)CCOC(=O)C1=C(COC(N)=O)CSC2N1C(=O)C2(NC(=O)Cc1cccs1)OC.Cl (centres unmarked) [3-[[(aminocarbonyl)oxy]methyl]-7-methoxy-8-oxo-7-[(2-thienylacetyl)amino]-5-thia-1-azabicyclo[4.2.0]oct-2-ene-2-carboxylic acid 2-diethylaminoethyl ester hydrochloride]
In vitro Penetration Rate (apparent flux), HPPs ([1]; human, 10 %, pH 7.4): 0.61 ± 0.05 mg/cm^2/h | half-life at 9.1 mg/mL ([2]; human, plasma): 7 min

CCN(CC)CCOC(=O)C1N2C(=O)C(NC(=O)C3C(c4ccccc4)=NOC3C)C2SC1(C)C.Cl (centres unmarked) [6-(5-methyl-3-phenyl-2-isoxazoline-4-carboxamido)penicillinic acid 2-diethylaminoethyl ester hydrochloride]
Amount of parent drug found in Blood [3]: 28 ± 5 µg/g | Amount of parent drug found in Brain [3]: 8 ± 6 µg/g | Amount of parent drug found in Kidney [3]: 16 ± 5 µg/g | Amount of parent drug found in Liver [3]: 18 ± 7 µg/g | Amount of parent drug found in Muscel [3]: 22 ± 5 µg/g | Half life of HPPs in plasma ([2]; human, plasma): 12 ± 1 min

CCN(CC)CCOC(=O)C1N2C(=O)C(NC(=O)[C@H](NC(=O)N3CCN(CC)C(=O)C3=O)c3ccccc3)C2SC1(C)C.Cl (stereo partly drawn) [6-D(−)-α-(4-ethyl-2,3-dioxo-1-piperazinylcarbonylamino)-α-phenylacetamidopenicillinic acid 2-diethylaminoethyl ester hydrochloride]
In vitro Penetration Rate (apparent flux), HPPs ([1]; pH 7.4): 0.74 ± 0.08 mg/cm^2/h | Half life of HPPs in plasma ([2]; human plasma, 37° C.): 15 ± 1 min

CCN(CC)CCOC(=O)C1N2C(=O)C(NC(=O)c3c(-c4ccccc4Cl)noc3C)C2SC1(C)C.Cl (centres unmarked) [6-[3-(o-chlorophenyl)-5-methyl-4-isoxazolecarboxamido]penicillinic acid 2-diethylaminoethyl ester hydrochloride]
Amount of parent drug found in Blood [3]: 25 ± 8 µg/g | Amount of parent drug found in Brain [3]: 9 ± 5 µg/g | Amount of parent drug found in Kidney [3]: 12 ± 7 µg/g | Amount of parent drug found in Liver [3]: 14 ± 6 µg/g | Amount of parent drug found in Muscel [3]: 20 ± 7 µg/g | Half life of HPPs in plasma ([2]; human, plasma): 8 ± 1 min

CCN(CC)CCOC(=O)C1N2C(=O)[C@@H](NC(=O)C(NC(=O)N3CCN(S(C)(=O)=O)C3=O)c3ccccc3)C2SC1(C)C.Cl (stereo partly drawn) [6R-[2-[3-(methylsulfonyl)-2-oxo-1-imidazolidinecarboxamido]-2-phenylacetamido]penicillinic acid 2-diethylaminoethyl ester hydrochloride]
Half life of HPPs in plasma ([2]; human, plasma): 13 ± 1 min

CCN(CC)CCOC(=O)C1=C(COC(C)=O)CSC2C(NC(=O)Cc3cccs3)C(=O)N12.Cl (centres unmarked) [7-(2-thienylacetamido)cephalosporanic acid 2-diethylaminoethyl ester hydrochloride]
In vitro Penetration Rate (apparent flux), HPPs ([1]; pH 7.4): 0.62 ± 0.06 mg/cm^2/h | Half life of HPPs in plasma ([2]; human plasma, 37° C.): 9 ± 1 min

C=CC1=C(C(=O)OCCN(CC)CC)N2C(=O)C(NC(=O)/C(=N\OCC(=O)OCC)c3csc(NC(C)=O)n3)C2SC1.Cl (centres unmarked) [7-[2-(2-acetylamino-4-thiazolyl)-2-((Z)-ethoxycarbonylmethoxy)imino]acetamido]-3-(vinyl)-8-oxo-5-thia-1-azabicyclo[4.2.0]oct-2-ene-2-carboxylic acid 2-diethylaminoethyl ester hydrochloride]
In vitro Penetration Rate (apparent flux), HPPs ([1]; pH 7.4): 0.58 ± 0.05 mg/cm^2/h | Half life of HPPs in plasma ([2]; human plasma, 37° C.): 9 ± 1 min

CCN(CC)CCOC(=O)C1=C(COC)CSC2C(NC(=O)/C(=N\OC)c3csc(NC(C)=O)n3)C(=O)N12.Cl (centres unmarked) [7-[2-(2-acetylamino-4-thiazolyl)-2-((Z)-methoxyimino)acetamido]-3-(methoxymethyl)-8-oxo-5-thia-1-azabicyclo[4.2.0]oct-2-ene-2-carboxylic acid 2-diethylaminoethyl ester hydrochloride]
In vitro Penetration Rate (apparent flux), HPPs ([1]; human, 10 %, pH 7.4): 0.51 ± 0.03 mg/cm^2/h | half-life at 9.1 mg/mL ([2]; human, plasma): 8 min

CCN(CC)CCOC(=O)C1=C(Cl)CSC2C(NC(=O)C(NC(C)=O)c3ccccc3)C(=O)N12.Cl (centres unmarked) [7-[(acetylaminophenylacetyl)amino]-3-chloro-8-oxo-5-thia-1-azabicyclo[4.2.0]oct-2-ene-2-carboxylic acid 2-diethylaminoethyl ester hydrochloride]
In vitro Penetration Rate (apparent flux), HPPs ([1]; human, 10 %, pH 7.4): 0.71 ± 0.05 mg/cm^2/h | half-life at 9.1 mg/mL ([2]; human, plasma): 8 min

CCN(CC)CCOC(=O)C1=C(CSc2nnnn2C)CSC2C(NC(=O)C(O)c3ccccc3)C(=O)N12.Cl (centres unmarked) [7-[(hydroxyphenylacetyl)amino]-3-[[(1-methyl-1H-tetrazol-5-yl)thio]methyl]-8-oxo-5-thia-1-azabicyclo[4.2.0]oct-2-ene-2-carboxylic acid 2-diethylaminoethyl ester hydrochloride]
In vitro Penetration Rate (apparent flux), HPPs ([1]; human, 10 %, pH 7.4): 0.75 ± 0.05 mg/cm^2/h | half-life at 9.1 mg/mL ([2]; human, plasma): 10 min

CCOC(=O)Cn1nnnc1SCC1=C(C(=O)OCCN(CC)CC)N2C(=O)C(NC(=O)Cc3ccccc3CNC(C)=O)C2SC1.Cl (centres unmarked) [7-[[[2-(acetylaminomethyl)phenyl]acetyl]amino]-3-[[[1-(ethoxylcarbonylmethyl)-1H-tetrazol-5-yl]thio]methyl]-8-oxo-5-thia-1-azabicyclo[4.2.0]oct-2-ene-2-carboxylic acid 2-diethylaminoethyl ester hydrochloride]
In vitro Penetration Rate (apparent flux), HPPs ([1]; human, 10 %, pH 7.4): 0.52 ± 0.04 mg/cm^2/h | half-life at 9.1 mg/mL ([2]; human, plasma): 9 min

CCN(CC)CCOC(=O)C1=C(CSc2nnnn2C)CSC2C(NC(=O)C(NC(=O)N3CCN(CC)C(=O)C3=O)c3ccc(OC(C)=O)cc3)C(=O)N12.Cl (centres unmarked) [7-[[[[(4-ethyl-2,3-dioxo-1-piperazinyl)carbonyl]amino](4-acetoxyphenyl)acetyl]amino]-3-[[(1-methyl-1H-tetrazol-5-yl)thio]methyl]-8-oxo-5-thia-1-azabicyclo[4.2.0]oct-2-ene-2-carboxylic acid 2-diethylaminoethyl ester hydrochloride]
In vitro Penetration Rate (apparent flux), HPPs ([1]; human, 10 %, pH 7.4): 0.57 ± 0.04 mg/cm^2/h | half-life at 9.1 mg/mL ([2]; human, plasma): 12 min

CO/N=C(\C(=O)N[C@@H]1C(=O)N2C(C(=O)O)=CCS[C@H]12)c1csc(N)n1 [Ceftizoxime, reference compound]
In vitro Penetration Rate (apparent flux), Parent compounds ([1]; human, 10 %, pH 7.4): <0.010 mg/cm^2/h | MIC ([4]; Staphylococcus aureus, MRSA, read-out: MIC): 2790 µg/mL (≈ 7.27 mM)

CCN(CC)CCOC(=O)C1N2C(=O)C(NC(=O)[C@H](NC(=O)N3CCNC3=O)c3ccccc3)C2SC1(C)C.Cl (stereo partly drawn) [D-α-[(imidazolidin-2-on-1-yl)carbonylamino]benzylpenicillin 2-diethylaminoethyl ester hydrochloride]
Half life of HPPs in plasma ([2]; human, plasma): 9 ± 1 min

Cc1onc(-c2ccccc2)c1C(=O)N[C@@H]1C(=O)N2[C@@H]1SC(C)(C)[C@@H]2C(=O)O [Oxacillin, reference compound]
In vitro Penetration Rate (apparent flux), Parent compounds ([1]; human, 10 %, pH 7.4): <0.001 mg/cm^2/h | drug detected in blood, liver, kidney, muscle or brain of mice treated with only the parent drug [3]: No drug was detected

C=CCSCC(=O)NC1C(=O)N2C1SC(C)(C)C2C(=O)OCCN(CC)CC.Cl (centres unmarked) [allylmercaptomethylpenicillinic acid 2-diethylaminoethyl ester hydrochloride]
Half life of HPPs in plasma ([2]; human, plasma): 8 ± 1 min

COc1cccc(OC)c1C(=O)NC1C(=O)N2C1SC(C)(C)C2C(=O)OCC1CCCN1.Cl (centres unmarked) [methicillin-PME, 6-(2,6-dimethoxybenzamido)penicillinic acid 2-pyrrolidinemethyl ester hydrochloride]
MIC [4]: 10 µg/mL

CC1(C)SC2C(NC(=O)COc3ccccc3)C(=O)N2C1C(=O)OCCN1CCCCC1.Cl (centres unmarked) [penicillin V-PEE, 6-phenoxyacetacetamidopenicillanic acid 1-piperidineethyl ester hydrochloride]
MIC [4]: 1 µg/mL

penicillin V [reference compound]
MIC [4]: 3524 µg/mL
